Data published in patent US20250144050A1, “AMINOTHIOL-CONJUGATES, COMPOSITIONS, AND METHODS OF USE THEREOF” (THE BURLINGTON HC RESEARCH GROUP, INC., priority 2021, published 2025).
Where two headings read alike, the source gives them in different places.

Legend:
human cancer cell lines = assay: CyQUANT cell viability assay, 48-hour exposure, panel averages; details: for fold greater cytostatic effect than amifostine: HCC38, PC3, SKOV3, TOV21G (amifostine GI50 <100 μM); for fold more potent than amifostine as a cytostatic agent, averaging: averages of dose-response metrics across panel
Protocol: After drug treatments, fluorescence readings from 96-well plates were obtained using the CyQUANT dye and compared to standard curves for each cell line to determine cell viability. […] Trypan blue exclusion was used to estimate cell numbers in a few pilot experiments and was thereafter applied to confirm cell death.
A series of experiments was conducted to assess the relative efficacy of 4SP65, 1LP65, and amifostine as single agents in the same human cancer cell lines. First, the effectiveness of 4SP65 was tested against 15 cancer cell lines derived from seven tissues. […] The effectiveness of 0 to ≤500 μM amifostine was tested in sets of cancer cell lines reported to have either medium, high, or no expression of alkaline phosphatase.
Trans. R Soc. Lond. […] Using cell numbers based on fluorescence measurements and standard curves [time zero, (Tz), control growth, (C), and test growth in the presence of drug at five or more concentration levels (Ti)], the percentage growth was calculated at each drug concentration level. The percentage of growth inhibition was calculated as follows:
The LC50/99 was calculated using Equation 2=−50 and Eq. 2=−99, respectively. […] For NHMECs, the relationships between drug exposure levels and fluorescence units were used to define dose-response metrics. The selectivity index (SI) values for individual drug treatments were calculated as IC50 levels in NHMECs divided by the IC50 values in cancer cell lines.

[1] = system: normal human mammary epithelial cells (NHMECs); assay: Growth of NHMEC strains after 48-hour exposure; assay type: cell-based; details: for average effect per unit dose (% growth÷exposure concentration) / average effect per unit dose: NHMECs; for cell growth as % of control cell values: highest drug level 500 μM; for growth relative to control cells: 48-hour
Source text: Normal human mammary epithelial cell (NHMEC) strains used to assess potential cytotoxicity of 4SP65/1LP65 were established from reduction mammoplasty tissue from a healthy donor (#M99005 or ‘Strain-1’) (Keshava et al., “Induction of CYP1A1 and CYP1B1 and Formation of Carcinogen-DNA Adducts in Normal Human Mammary Epithelial Cells Treated with Benzo[a]pyrene,” Cancer Lett. 221 (2): 213-24 (2005), which is hereby incorporated by reference in its entirety) or purchased from ATCC (Manassas, VA, USA; batch #70043304 or ‘Strain-2’) or Cell Applications (San Diego, CA, USA; lot #1669 or ‘Strain-3’). Human cancer cell lines including HCC38 (Cat #CRL2314™), MDA-MB-231 (Cat #HTB-26™), A549/ATCC (Cat #CL-185™), National Cancer Institute (NCI)-H460 (Cat #HTB177™), NCI-H1437 (Cat #CRL-5872™), NCI-H1975 (Cat #CRL-5908™), DU145 (Cat #HTB-81™), LNCaP (Cat #CRL-1740™), PC3 (Cat #CRL-1435™), PANC1 (Cat #CRL-1469™), SKOV3 (Cat #HTB-75™), and HL60 (Cat #CCL-240™), which were free of mycoplasma, were purchased from ATCC. HMESO1 (CLS Cell Lines Service GmbH, Cat #BHC11100791), PPMMill, and TOV21G cells (ATTC Cat #CRL-11730), obtained from Dr. Brian Cunniff, were verified to be Mycoplasma negative using the LookOutR Mycoplasma PCR Detection Kit (Sigma-Aldrich, Cat #MP0035) and to match previously annotated DNA fingerprints by the Vermont Integrative Genomics Resource DNA Analysis Facility.
To assess the effects of 4SP65 on the growth of normal epithelium, experiments were performed using NHMEC strains from three donors (Keshava et al., “Induction of CYP1A1 and CYP1B1 and Formation of Carcinogen-DNA Adducts in Normal Human Mammary Epithelial Cells Treated with Benzo[a]pyrene,” Cancer Lett. 221 (2): 213-24 (2005), which is hereby incorporated by reference in its entirety). Strain-1 NHMECs were plated at 5,000 cells/well in 24-well dishes and allowed to reach 50% confluence before treatment with 0-300 μM 4SP65 for 48 hours. Cell viability was determined using a hemocytometer and trypan blue exclusion assay. Two other NHMEC strains, exposed to 0-150 μM 4SP65 or 0-500 μM 1LP65, were handled in the same fashion except that viability of cells in 96-well plates was determined using CyQUANT dye.

[2] = 48-hour, 15 cancer cell lines (4SP65), 11 (1LP65)

COCCOCCOCCOCCOCCOCCSSCCNCCCN [1LP65, m-PEG6-S-S-WR1065]
LC99, average across cell lines (human cancer cell lines; [2]): 126 ± 15.8 µM
LC99, range (human cancer cell lines; [2]): 83.5 to 234 µM
TGI, average across cell lines (human cancer cell lines; [2]): 69.3 ± 10.3 µM
TGI, range (human cancer cell lines; [2]): 32.7 to 126 µM
fold greater cytostatic effect than amifostine (human cancer cell lines): 2.1 fold
GI50 (human cancer cell lines; Homo sapiens, 48 h, read-out: GI50, average across cell lines, 48-hour, 15 cancer cell lines (4SP65), 11 (1LP65)): 41.2 ± 5.4 µM
GI50 (human cancer cell lines; Homo sapiens, 48 h, read-out: GI50, range for individual cell lines, 48-hour, 15 cancer cell lines (4SP65), 11 (1LP65)): 21.3 to 77.7 µM
CC50 (human cancer cell lines; Homo sapiens, 48 h, read-out: LC50, average across cell lines): 94.6 ± 12.8 µM
CC50 (human cancer cell lines; Homo sapiens, 48 h, read-out: LC50, range): 51.3 to 157 µM
GI50 (human cancer cell lines; Homo sapiens, read-out: average GI50, HCC38, PC3, SKOV3, and TOV21G): 30.4 µM
fold more potent than amifostine as a cytostatic agent, averaging (human cancer cell lines): 5.9 fold
cytotoxicity in NHMECs ([1]; 500 μM): not cytotoxic
IC50 ([1]; Homo sapiens, Epithelial cell, 48 h, Strain-2 cells, 48 hours, read-out: IC50): > 500 µM
IC50 ([1]; Homo sapiens, Epithelial cell, 48 h, Strain-3 cells, 48 hours, read-out: IC50): 210 µM
IC50 ([1]; Homo sapiens, Epithelial cell, Strain-2 and Strain-3, read-out: IC50, averaging over strains): > 355 µM
average effect per unit dose (% growth÷exposure concentration) ([1]; 90 μM): 2.9
average effect per unit dose (% growth÷exposure concentration) ([1]; 150 μM): 0.31
average effect per unit dose ([1]; 300 μM): 0.06
average effect per unit dose ([1]; 500 μM): 0.03
cell growth as % of control cell values ([1]; Strain-2, 48 hours): 19.5%
cell growth as % of control cell values ([1]; Strain-3, 48 hours): 12.5%

4-star PEG-S-S-WR1065 [4SP65]
fold greater potency than predicted by ratio of four vs one WR1065/molecule (human cancer cell lines; 4SP65 versus 1LP65): ~2.5 fold
LC99, average across cell lines (human cancer cell lines; [2]): 11.2 µM
LC99, range (human cancer cell lines; [2]): 3.0 to 21.1 µM
TGI, average across cell lines (human cancer cell lines; [2]): 6.8 ± 1.1 µM
TGI, range (human cancer cell lines; [2]): 2.0 to 16.3 µM
fold greater cytostatic effect than amifostine (human cancer cell lines): 38 fold
fold more potent than 1LP65, averaging (human cancer cell lines; across dose-response metrics): 10.4 fold
fold more potent than amifostine as a cytostatic agent, averaging (human cancer cell lines): 55 fold
GI50 (human cancer cell lines; read-out: GI50, average across cell lines, 48-hour, 15 cancer cell lines (4SP65), 11 (1LP65)): 4.1 ± 0.8 µM
GI50 (human cancer cell lines; read-out: average GI50, HCC38, PC3, SKOV3, and TOV21G): 1.7 µM
average effect per unit dose (% growth÷exposure concentration) ([1]; 9 μM): 8.7
average effect per unit dose (% growth÷exposure concentration) ([1]; 30 μM): 1.70
average effect per unit dose (% growth÷exposure concentration) ([1]; 90 μM): 0.23
average effect per unit dose (% growth÷exposure concentration) ([1]; 150 μM): 0.058
growth compared to sham-exposed control cells ([1]; Strain-1, 5 μM, 48 hours): 336%
growth compared to sham-exposed control cells ([1]; Strain-1, 15 μM, 48 hours): 286%
growth as % of control cell growth ([1]; Strain-1, 50 μM, 48 hours): 68%
growth pattern ([1]; Strain-1, 150 μM, 48 hours): re-established a predominant pattern of growth enhancement
IC50 ([1]; Strain-1 and Strain-2 NHMECs): could not be calculated or predicted
GI50 ([1]; Strain-1 and Strain-2 of NHMECs): could not be calculated or predicted
growth relative to control cells ([1]; Strain-2 and Strain-3, 3 μM): 162%±7%
growth relative to control cells ([1]; Strain-2 and Strain-3, 9 μM): 78%±12%
growth relative to control cells ([1]; Strain-2 and Strain-3, 30 μM): 52%±8%
growth relative to control cells ([1]; Strain-2 and Strain-3, 50 μM (so in the source)): 21%±4%
growth relative to control cells ([1]; Strain-2 and Strain-3, 150 μM): 8.7%±2%
IC50 ([1]; Strain-3 cells, 48 hours, read-out: IC50): 76 ± 14 µM
GI50 ([1]; strain 3 of NHMECs, read-out: GI50): 41.4 ± 6.2 µM
